What was measured:
[1] = biological target: Sodium-dependent dopamine transporter (Homo sapiens, UniProt Q01959)
[2] = biological target: Gamma-aminobutyric acid receptor subunit alpha-1 (Rattus norvegicus, UniProt P62813); type: functional
[3] = biological target: T1, Alpha-2A adrenergic receptor (Homo sapiens, UniProt P08913); type: functional, cell-based
T1 sequence (P08913 whole entry): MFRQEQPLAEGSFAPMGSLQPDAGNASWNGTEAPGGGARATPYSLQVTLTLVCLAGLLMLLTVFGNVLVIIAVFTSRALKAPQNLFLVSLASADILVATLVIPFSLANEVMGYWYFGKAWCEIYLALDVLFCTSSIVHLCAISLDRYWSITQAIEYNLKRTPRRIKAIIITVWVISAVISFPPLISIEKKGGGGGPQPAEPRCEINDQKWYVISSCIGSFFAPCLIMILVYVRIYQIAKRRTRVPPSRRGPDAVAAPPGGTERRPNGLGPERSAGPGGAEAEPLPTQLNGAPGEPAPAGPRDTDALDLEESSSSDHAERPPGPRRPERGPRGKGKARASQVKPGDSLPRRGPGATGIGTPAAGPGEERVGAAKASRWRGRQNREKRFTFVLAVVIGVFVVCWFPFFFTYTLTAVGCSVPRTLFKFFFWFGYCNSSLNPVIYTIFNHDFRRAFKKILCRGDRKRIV

[4] = biological target: Sodium-dependent noradrenaline transporter (Homo sapiens, UniProt P23975)
[5] = biological target: T2, 5-hydroxytryptamine receptor 3A (Homo sapiens, UniProt P46098); type: functional
T2 sequence (P46098 whole entry): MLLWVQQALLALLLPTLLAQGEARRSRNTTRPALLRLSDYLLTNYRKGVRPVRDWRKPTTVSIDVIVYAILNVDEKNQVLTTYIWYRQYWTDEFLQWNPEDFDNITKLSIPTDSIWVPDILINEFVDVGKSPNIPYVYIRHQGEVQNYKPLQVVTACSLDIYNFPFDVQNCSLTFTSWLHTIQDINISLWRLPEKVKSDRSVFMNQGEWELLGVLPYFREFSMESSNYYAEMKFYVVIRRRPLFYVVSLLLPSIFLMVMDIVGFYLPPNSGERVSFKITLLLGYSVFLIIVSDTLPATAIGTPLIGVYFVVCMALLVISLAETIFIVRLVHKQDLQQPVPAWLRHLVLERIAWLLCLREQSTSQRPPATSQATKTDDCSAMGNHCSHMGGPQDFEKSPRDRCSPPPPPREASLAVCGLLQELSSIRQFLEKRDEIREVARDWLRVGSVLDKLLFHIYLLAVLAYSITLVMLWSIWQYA

[6] = biological target: T1, Alpha-2A adrenergic receptor; type: functional, cell-based; remark: listed apart in the source
[7] = biological target: Adenosine receptor A2a (Homo sapiens, UniProt P29274)
[8] = biological target: Neuronal acetylcholine receptor subunit alpha-4 (Homo sapiens, UniProt P43681)
[9] = biological target: T3, Prostaglandin G/H synthase 1 (Rattus norvegicus, UniProt Q63921); type: functional
T3 sequence (Q63921 whole entry): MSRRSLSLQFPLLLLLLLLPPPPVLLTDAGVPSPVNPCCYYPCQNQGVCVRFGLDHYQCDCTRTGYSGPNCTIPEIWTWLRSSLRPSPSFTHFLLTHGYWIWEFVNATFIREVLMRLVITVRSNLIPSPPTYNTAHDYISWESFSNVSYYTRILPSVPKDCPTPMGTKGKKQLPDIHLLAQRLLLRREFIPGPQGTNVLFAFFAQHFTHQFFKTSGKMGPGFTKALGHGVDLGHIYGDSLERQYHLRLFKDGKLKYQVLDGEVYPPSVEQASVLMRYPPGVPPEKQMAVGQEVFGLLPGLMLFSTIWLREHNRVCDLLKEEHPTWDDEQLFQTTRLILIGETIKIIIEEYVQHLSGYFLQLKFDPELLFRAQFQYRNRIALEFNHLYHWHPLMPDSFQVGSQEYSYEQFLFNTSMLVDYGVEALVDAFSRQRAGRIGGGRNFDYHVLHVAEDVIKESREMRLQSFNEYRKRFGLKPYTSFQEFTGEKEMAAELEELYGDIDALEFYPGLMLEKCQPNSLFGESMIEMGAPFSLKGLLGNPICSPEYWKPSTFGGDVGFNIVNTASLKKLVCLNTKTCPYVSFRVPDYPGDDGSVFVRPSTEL

[10] = biological target: 5-hydroxytryptamine receptor 2B (Homo sapiens, UniProt P41595); type: functional, cell-based
[11] = biological target: 3',5'-cyclic-AMP phosphodiesterase 4D (Homo sapiens, UniProt Q08499); type: functional
[12] = biological target: Melanocortin receptor 3 (Homo sapiens, UniProt P41968)
[13] = biological target: T4, Equilibrative nucleoside transporter 1 (Homo sapiens, UniProt Q99808)
T4 sequence (Q99808 whole entry): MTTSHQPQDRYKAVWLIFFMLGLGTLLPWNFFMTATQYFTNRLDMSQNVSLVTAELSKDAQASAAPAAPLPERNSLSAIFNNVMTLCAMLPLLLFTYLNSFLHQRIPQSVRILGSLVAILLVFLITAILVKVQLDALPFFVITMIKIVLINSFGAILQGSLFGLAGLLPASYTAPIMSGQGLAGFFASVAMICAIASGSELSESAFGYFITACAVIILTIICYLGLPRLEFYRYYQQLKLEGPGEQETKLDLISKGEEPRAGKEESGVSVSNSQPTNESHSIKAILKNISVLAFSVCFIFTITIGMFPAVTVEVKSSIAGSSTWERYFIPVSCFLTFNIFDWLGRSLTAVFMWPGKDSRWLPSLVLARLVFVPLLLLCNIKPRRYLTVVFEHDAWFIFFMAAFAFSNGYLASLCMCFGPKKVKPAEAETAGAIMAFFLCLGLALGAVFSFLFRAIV

[14] = biological target: Voltage-gated inwardly rectifying potassium channel KCNH2 (Homo sapiens, UniProt Q12809); type: functional; conditions: read-out: AC50
[15] = biological target: Delta-type opioid receptor (Homo sapiens, UniProt P41143)
[16] = biological target: Growth hormone secretagogue receptor type 1 (Homo sapiens, UniProt Q92847)
[17] = biological target: D(1A) dopamine receptor (Homo sapiens, UniProt P21728); type: functional, cell-based
[18] = biological target: Bile salt export pump (Homo sapiens, UniProt O95342); type: functional
Further: assay procedure not described here.

Sodium-dependent dopamine transporter, sequence (Q01959 whole entry): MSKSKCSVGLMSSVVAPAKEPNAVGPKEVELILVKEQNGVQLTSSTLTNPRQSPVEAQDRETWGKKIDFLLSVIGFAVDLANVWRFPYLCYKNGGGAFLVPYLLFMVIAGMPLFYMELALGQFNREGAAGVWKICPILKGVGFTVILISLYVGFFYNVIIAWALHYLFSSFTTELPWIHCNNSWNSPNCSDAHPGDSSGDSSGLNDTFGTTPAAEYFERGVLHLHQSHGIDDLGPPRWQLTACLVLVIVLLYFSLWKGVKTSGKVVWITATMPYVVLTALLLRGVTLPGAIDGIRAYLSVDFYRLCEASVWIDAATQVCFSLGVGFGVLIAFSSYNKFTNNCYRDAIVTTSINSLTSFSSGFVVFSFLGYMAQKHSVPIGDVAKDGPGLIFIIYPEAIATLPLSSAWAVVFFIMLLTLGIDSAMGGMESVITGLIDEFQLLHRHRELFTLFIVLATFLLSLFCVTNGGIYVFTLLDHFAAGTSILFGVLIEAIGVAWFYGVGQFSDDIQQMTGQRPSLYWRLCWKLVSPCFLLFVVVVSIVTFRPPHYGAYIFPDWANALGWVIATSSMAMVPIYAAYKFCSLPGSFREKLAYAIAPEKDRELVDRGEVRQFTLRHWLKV
Bile salt export pump, sequence (O95342 whole entry): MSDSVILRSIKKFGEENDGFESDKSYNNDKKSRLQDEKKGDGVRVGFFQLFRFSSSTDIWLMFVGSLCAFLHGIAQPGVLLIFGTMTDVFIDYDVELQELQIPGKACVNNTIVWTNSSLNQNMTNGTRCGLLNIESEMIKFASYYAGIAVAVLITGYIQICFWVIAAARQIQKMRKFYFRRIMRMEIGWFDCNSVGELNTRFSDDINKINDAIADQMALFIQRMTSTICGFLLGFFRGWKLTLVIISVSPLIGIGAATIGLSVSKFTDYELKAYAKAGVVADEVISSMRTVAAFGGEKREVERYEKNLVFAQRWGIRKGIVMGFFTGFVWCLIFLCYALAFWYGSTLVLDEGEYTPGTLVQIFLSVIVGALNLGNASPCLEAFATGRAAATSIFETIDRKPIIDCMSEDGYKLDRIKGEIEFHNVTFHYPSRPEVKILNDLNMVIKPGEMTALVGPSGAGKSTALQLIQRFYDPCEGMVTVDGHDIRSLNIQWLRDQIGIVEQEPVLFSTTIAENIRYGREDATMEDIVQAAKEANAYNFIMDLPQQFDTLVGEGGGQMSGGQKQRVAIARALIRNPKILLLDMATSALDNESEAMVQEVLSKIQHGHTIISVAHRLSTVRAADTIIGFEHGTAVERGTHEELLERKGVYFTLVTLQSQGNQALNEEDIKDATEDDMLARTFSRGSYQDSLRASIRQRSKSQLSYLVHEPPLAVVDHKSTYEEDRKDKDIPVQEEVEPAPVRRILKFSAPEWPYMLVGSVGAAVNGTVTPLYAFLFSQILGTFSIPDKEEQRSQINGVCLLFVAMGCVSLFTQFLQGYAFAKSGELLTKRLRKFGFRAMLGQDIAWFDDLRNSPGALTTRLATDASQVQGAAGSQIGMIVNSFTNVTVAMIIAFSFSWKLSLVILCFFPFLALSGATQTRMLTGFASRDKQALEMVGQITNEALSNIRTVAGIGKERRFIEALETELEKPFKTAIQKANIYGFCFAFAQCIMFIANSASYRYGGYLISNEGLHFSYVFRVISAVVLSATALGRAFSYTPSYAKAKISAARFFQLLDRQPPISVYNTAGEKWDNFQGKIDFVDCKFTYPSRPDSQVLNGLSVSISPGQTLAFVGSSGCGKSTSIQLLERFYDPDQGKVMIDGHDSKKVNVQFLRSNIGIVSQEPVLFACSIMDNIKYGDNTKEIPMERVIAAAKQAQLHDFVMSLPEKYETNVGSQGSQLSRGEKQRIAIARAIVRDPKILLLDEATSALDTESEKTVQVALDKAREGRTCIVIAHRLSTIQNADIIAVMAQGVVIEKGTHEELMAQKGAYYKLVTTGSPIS
D(1A) dopamine receptor, sequence (P21728 whole entry): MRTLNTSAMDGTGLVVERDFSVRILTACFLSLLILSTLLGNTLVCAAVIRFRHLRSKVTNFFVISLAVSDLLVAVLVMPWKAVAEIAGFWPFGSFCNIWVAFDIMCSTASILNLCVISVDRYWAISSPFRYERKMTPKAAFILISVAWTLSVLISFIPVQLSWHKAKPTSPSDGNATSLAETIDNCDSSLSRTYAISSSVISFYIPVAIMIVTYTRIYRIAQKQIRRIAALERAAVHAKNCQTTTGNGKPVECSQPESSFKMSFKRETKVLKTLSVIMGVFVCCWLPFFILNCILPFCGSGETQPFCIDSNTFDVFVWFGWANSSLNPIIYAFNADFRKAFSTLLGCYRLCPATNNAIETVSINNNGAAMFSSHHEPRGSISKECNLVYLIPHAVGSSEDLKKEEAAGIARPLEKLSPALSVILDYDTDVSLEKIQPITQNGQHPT
Growth hormone secretagogue receptor type 1, sequence (Q92847 whole entry): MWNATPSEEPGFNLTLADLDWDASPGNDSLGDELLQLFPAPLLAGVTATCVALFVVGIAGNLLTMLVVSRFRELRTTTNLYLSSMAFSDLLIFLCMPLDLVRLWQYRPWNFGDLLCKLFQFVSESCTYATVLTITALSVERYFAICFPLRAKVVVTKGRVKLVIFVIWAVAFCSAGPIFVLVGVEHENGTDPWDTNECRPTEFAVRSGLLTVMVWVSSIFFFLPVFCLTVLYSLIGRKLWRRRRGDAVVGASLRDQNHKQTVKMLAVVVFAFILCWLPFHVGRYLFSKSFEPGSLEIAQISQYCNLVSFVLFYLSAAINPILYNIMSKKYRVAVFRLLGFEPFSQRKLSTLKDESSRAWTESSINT
Gamma-aminobutyric acid receptor subunit alpha-1, sequence (P62813 whole entry): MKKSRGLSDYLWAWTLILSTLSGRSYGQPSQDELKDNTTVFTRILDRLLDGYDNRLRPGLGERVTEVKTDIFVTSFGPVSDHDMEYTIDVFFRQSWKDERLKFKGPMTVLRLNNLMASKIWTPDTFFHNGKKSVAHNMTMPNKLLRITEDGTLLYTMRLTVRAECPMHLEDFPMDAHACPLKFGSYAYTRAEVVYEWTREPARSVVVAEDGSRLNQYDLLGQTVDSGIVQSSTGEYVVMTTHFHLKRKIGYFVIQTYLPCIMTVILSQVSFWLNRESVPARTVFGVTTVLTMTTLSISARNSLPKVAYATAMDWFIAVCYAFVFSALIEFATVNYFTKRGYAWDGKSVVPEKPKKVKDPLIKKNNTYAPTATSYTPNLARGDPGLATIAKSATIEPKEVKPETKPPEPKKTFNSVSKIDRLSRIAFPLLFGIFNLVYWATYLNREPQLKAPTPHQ
3',5'-cyclic-AMP phosphodiesterase 4D, sequence (Q08499 whole entry): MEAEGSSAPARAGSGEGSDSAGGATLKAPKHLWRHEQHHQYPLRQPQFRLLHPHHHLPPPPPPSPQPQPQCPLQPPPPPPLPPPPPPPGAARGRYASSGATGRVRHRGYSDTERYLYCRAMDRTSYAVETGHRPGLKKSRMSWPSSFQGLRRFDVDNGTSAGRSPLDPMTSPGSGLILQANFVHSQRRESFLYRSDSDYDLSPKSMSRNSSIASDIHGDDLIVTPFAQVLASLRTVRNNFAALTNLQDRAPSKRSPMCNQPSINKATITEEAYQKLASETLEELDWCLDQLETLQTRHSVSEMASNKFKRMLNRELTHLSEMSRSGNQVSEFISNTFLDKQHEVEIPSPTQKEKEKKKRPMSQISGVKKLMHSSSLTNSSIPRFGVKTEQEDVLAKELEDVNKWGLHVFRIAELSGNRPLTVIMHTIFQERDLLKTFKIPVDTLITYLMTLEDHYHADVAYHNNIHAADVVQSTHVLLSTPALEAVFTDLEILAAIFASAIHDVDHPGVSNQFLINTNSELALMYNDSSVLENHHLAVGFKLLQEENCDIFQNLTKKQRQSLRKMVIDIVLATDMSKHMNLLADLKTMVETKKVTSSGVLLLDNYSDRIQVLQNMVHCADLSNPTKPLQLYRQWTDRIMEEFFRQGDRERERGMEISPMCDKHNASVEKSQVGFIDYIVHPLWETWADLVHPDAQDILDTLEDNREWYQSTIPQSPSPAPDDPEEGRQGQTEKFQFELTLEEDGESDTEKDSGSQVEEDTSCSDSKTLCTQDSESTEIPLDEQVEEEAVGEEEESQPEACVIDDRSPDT
Sodium-dependent noradrenaline transporter, sequence (P23975 whole entry): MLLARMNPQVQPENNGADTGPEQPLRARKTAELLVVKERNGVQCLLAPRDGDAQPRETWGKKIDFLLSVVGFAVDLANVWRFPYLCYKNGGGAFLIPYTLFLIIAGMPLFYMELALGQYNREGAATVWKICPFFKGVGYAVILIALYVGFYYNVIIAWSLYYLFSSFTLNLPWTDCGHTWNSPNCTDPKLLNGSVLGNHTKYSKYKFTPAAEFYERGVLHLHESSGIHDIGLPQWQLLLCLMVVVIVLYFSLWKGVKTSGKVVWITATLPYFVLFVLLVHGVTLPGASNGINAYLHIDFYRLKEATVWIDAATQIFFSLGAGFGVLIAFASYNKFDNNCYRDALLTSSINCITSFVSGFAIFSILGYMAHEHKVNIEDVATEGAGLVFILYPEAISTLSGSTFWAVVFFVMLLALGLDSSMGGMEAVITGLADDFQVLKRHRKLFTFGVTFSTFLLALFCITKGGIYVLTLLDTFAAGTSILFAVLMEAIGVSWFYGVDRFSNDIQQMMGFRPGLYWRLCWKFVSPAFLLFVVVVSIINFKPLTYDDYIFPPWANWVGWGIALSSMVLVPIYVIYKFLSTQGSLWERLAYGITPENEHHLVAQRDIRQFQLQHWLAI
Delta-type opioid receptor, sequence (P41143 whole entry): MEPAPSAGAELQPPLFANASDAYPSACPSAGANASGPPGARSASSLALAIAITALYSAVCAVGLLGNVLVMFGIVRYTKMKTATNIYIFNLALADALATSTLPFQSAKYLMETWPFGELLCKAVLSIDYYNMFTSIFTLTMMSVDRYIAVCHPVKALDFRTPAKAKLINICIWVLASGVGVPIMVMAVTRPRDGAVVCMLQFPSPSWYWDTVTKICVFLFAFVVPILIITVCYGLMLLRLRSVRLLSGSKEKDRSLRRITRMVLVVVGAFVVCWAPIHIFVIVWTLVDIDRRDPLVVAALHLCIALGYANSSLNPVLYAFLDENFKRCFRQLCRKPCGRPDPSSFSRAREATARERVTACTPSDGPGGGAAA

| Compound | AC50 [1] [µM] | AC50 [2] [µM] | AC50 [3] [µM] | AC50 [4] [µM] | AC50 [5] [µM] | AC50 [6] [µM] | AC50 [7] [µM] | AC50 [8] [µM] | AC50 [9] [µM] | AC50 [10] [µM] | AC50 [11] [µM] | AC50 [12] [µM] | AC50 [13] [µM] | AC50 [14] [µM] | AC50 [15] [µM] | AC50 [16] [µM] | AC50 [17] [µM] | AC50 [18] [µM] |
| --- | --- | --- | --- | --- | --- | --- | --- | --- | --- | --- | --- | --- | --- | --- | --- | --- | --- | --- |
| CO/N=C(\C(=O)N[C@@H]1C(=O)N2C(C(=O)[O-])=C(C[N+]3(C)CCCC3)CS[C@H]12)c1csc(N)n1 | > 300 | > 300 | > 300 | > 300 | > 300 | > 300 | > 300 | > 300 | > 300 | > 300 | > 300 | > 300 | > 300 | > 300 | > 300 | > 300 | > 300 | > 300 |
| COC(=O)N[C@H](C(=O)N1CCC[C@H]1c1nc(-c2ccc(-c3ccc(-c4c[nH]c([C@@H]5CCCN5C(=O)[C@@H](NC(=O)OC)C(C)C)n4)cc3)cc2)c[nH]1)C(C)C | > 30 | > 30 | > 30 | > 30 | > 30 | > 30 | > 30 | > 30 | > 30 | > 30 | > 30 | > 30 | > 30 |  | > 30 | > 30 | > 30 | 5.9 |
| CCOC(=O)[C@H](CCc1ccccc1)N[C@@H](C)C(=O)N1CCC[C@H]1C(=O)O | > 10 | > 10 | > 10 | > 10 | > 10 | > 10 | > 30 | > 10 | > 30 | > 10 | > 10 | > 30 | > 30 | > 30 | > 10 | > 30 | > 10 | > 300 |
| Nc1nc(N)c2nc(-c3ccccc3)c(N)nc2n1 | > 30 | > 30 | > 30 | > 30 | > 30 | > 30 | > 30 | > 30 | > 30 | > 30 | 24 | > 30 | > 30 | > 30 | > 30 | > 30 | > 30 | > 300 |
| C[C@H]1O[C@H](O[C@H]2[C@H](O)[C@@H](O)[C@@H](O[C@H]3[C@H](O)[C@@H](O)C(O)O[C@@H]3CO)O[C@@H]2CO)[C@H](O)[C@@H](O)[C@@H]1N[C@H]1C=C(CO)[C@@H](O)[C@H](O)[C@H]1O (some centres undefined) [ACARBOSE] | > 30 | > 10 | > 30 | > 30 | > 10 | > 30 | > 30 | > 30 | > 30 | > 30 | > 30 | > 30 | > 30 | > 30 | > 10 | > 30 | > 10 | > 300 |
| CCC[C@@H]1C[C@@H](C(=O)N[C@@H]([C@H]2O[C@H](SC)[C@H](O)[C@@H](O)[C@H]2O)[C@H](C)Cl)N(C)C1 [CLINDAMYCIN] | > 10 | > 10 | > 10 | > 10 | > 30 | > 10 | > 30 | > 10 | > 30 | > 10 | > 30 | > 30 | > 30 |  | > 30 | > 30 | > 10 | > 300 |
| CN(CCOc1ccc(NS(C)(=O)=O)cc1)CCc1ccc(NS(C)(=O)=O)cc1 [DOFETILIDE] | > 10 | > 10 | > 30 | > 10 | > 30 | > 30 | > 30 | > 10 | > 30 | > 30 | > 30 | > 30 | > 30 |  | > 30 | > 30 | > 10 | > 300 |
| Cc1cccc(C)c1OCC(C)N (centres undefined) [MEXILETINE] | > 30 |  | > 30 | > 30 |  | > 30 | > 30 | > 30 | > 10 | 8.5 | > 30 | > 30 | > 30 | > 30 |  | > 30 | > 30 | > 300 |
| COC(=O)C1=C(C)NC(C)=C(C(=O)OCC(C)C)C1c1ccccc1[N+](=O)[O-] (centres undefined) [NISOLDIPINE] | > 10 | > 10 | > 10 | > 10 | > 30 | > 10 | 5.5 | > 10 | > 10 | 17 | 11 | > 10 | > 10 |  | > 30 | > 10 | > 30 | 8 |
| OCc1cc([C@@H](O)CNCCCCCCOCCOCc2c(Cl)cccc2Cl)ccc1O [VILANTEROL] | 6.7 | > 30 | > 30 | 23 | > 30 | > 30 | > 30 | > 30 | > 30 | > 30 | 18 | 26 | > 30 |  | > 30 | 13 | 2.2 | 44 |
| O=C(CCCCCCC(=O)Nc1ccccc1)NO [VORINOSTAT] | > 30 | > 30 | > 30 | > 30 | > 30 | > 30 | > 30 | > 30 | > 30 | > 30 | > 30 | > 30 | > 30 |  | > 30 | > 30 | > 30 | > 300 |
